Where two headings read alike, the source gives them in different places.
What was measured:
[1] = biological target: T1, hERG ion channel (Homo sapiens, UniProt Q12809); experiment: hERG ion channel inhibition, automated QPatch on CHO cells expressing hERG; type: cell-based; settings: for Inhibitory activity against hERG (conclusion): 0.1-30 μM; for inhibition at 0.3 µM / inhibition at 1 µM / inhibition at 3 µM: human, CHO cells stably expressing hERG channels
T1 construct: expressed in transfected cells; host or cells: CHO cells, stably transfected
Description: (§1) A CHO cell line stably transfected with cDNA and expressing hERG channels of P15 was used for the study.
(§2) Cells were maintained in Petri dishes or flasks at 37° C. in a humidified incubator with 5% CO2 and cultured in a medium containing Ham's F12, 10% (v/v) heat-inactivated FBS, 100 μg/mL hygromycin B and 100 μg/mL geneticin (from Invitrogen). The cells were allowed to grow and reach a confluency of about 80-90% under the above conditions. Before the experiment, the cells were treated with Detachin (from Genlantis) for 3-5 min, at 37° C., then gently mixed well with medium at room temperature, and titrated 15-20 times with a pipette. Then the cells were resuspended in a serum-free medium containing CHO—S-SFM II medium (from Invitrogen) buffered with HEPES (25 mM). The cells used in QPatch study must meet the following criteria: under microscopy examination, the majority of cells in suspension should be single and isolated; their viability should be greater than 95%, with only a small amount of debris and cell clumps (which may clog the holes in QPlate during whole-cell clamp recording); the cell density should be within the range of 3-8×10^6 cells/mL in the final suspension before application to the QPatch stir chamber. Cells under such conditions can be used for recording only within four hours of being harvested.
(§3) Data acquisition was performed using automated QPatch (Sophion Biosciences, Denmark). The cells were voltage-clamped at a holding potential of −80 mV. The hERG current was activated by depolarization at +20 mV for 5 s, after which the current was activated back to −50 mV for 2.5 s to remove the inactivation and observe the outward tail current. The maximum amount of tail current was used to determine hERG current amplitude.
(§4) Six doses (30, 10, 3, 1, 0.3 and 0.1 μM) were selected to obtain a fitted curve and IC^50. The compound was prepared into serial dilutions in 3, 1, 0.3 and 0.1 mM DMSO vehicle to the final M ranges before the QPatch test. 5-10 minutes' ultrasonication and vortexing were generally used for solution to help completely dissolve the compound. The final DMSO concentration was 0.1% or lower, except that for the 30 μM point, the DMSO concentration was about 0.3%.
(§5) After achieving break-in (whole-cell) configuration, the cells were recorded for 120 s to assess current stability. The voltage settings described above were then applied to the cells once every 15 s throughout the whole process. Only stable cells with recording parameters above threshold were allowed to enter the drug assessment procedure. All the experiments were conducted at room temperature (about 25° C.).
(§6) An external solution containing 0.1% DMSO (vehicle) was applied to the cells to establish a baseline. After allowing the current to stabilize for 3 min, the compound was added. The compound solution was added and the cells were kept in the test solution until the effect of the compound reached a steady state or for a maximum of 4 min. For dose response assays, the compound was applied cumulatively to the cells from low to high concentrations. Washing with external solution was performed after compound testing. The positive control cisapride was used in the experiments to test the same batch of cells used for test compounds to ensure the normal response and the good quality of the cells.

[2] = biological target: T2, hERG (Homo sapiens, UniProt Q12809); experiment: as above; type: cell-based; settings: human, CHO cells stably expressing hERG channels
T2 construct: expressed in transfected cells; host or cells: CHO cells, stably transfected
Description: as §1, §2, §3, §4, §5, §6

[3] = system: Apoe KO mouse atherosclerosis model; experiment: Atherosclerosis model (Apoe KO mice, high-fat diet): blood lipid tests TCHO, TG, LDL-C, HDL-C; type: in vivo, C57BL/6 Apoe KO mice; settings: Apoe KO mice, high-fat diet; GEN1-284s 60 mpk QD oral, 8 weeks
Description: Method: Apoe KO mice were tested for basal blood lipid levels and divided into a normal control group and a high-fat group. After 8 weeks of housing, the mice from the high-fat group were divided into 4 groups of about 8: a normal diet group (Chow), a high-fat diet model group (HFD), an Atorvastatin positive group (HFD+atorvastatin 5 mpk, QD), and a GEN1-284s group (284-60 mpk, QD). Oral administration was performed for 8 consecutive weeks, and the effect of the compound on the following indicators in Apoe KO mice was observed: 4 blood lipid tests (TC, TG, HDL-C and LDL-C), aortic plaque En-face staining, and pathological oil red staining of the cardiac outflow tract.
Mice from the groups except for the normal diet control group (Chow) were fed with high-fat feed every day for […]. From week 9, each group was orally administered solvent or a corresponding test compound, and body weight data were recorded every day for 8 consecutive weeks. After the first 8 weeks' high-fat diet, blood samples were taken and centrifuged to separate serum, and the serum was tested for blood lipid levels (TCHO, TG, LDL-C and HDL-C). The mice were randomly grouped according to the TCHO results and body weight. During the subsequent 8 weeks of administration, blood lipid tests (TCHO, TG, LDL-C and HDL-C) were run once every 4 weeks.
Mice were fasted overnight, and blood (150 μL) was collected via mandibular blood sampling or eye ball removal (for endpoint only) and left at room temperature for 2 h. The blood was centrifuged at 4° C. at 7000 rpm for 10 min, and serum was pipetted, quick-frozen in dry ice and then stored at −80° C. before analysis. The serum was tested for the biochemical indicators TCHO, TG, LDL-C and HDL-C using kits and a microplate reader.

[4] = read-out: % of hERG inhibition, Cell 2
[5] = read-out: Mean % hERG inhibition
[6] = read-out: % of hERG inhibition, Cell 1

T1 sequence (Q12809 whole entry): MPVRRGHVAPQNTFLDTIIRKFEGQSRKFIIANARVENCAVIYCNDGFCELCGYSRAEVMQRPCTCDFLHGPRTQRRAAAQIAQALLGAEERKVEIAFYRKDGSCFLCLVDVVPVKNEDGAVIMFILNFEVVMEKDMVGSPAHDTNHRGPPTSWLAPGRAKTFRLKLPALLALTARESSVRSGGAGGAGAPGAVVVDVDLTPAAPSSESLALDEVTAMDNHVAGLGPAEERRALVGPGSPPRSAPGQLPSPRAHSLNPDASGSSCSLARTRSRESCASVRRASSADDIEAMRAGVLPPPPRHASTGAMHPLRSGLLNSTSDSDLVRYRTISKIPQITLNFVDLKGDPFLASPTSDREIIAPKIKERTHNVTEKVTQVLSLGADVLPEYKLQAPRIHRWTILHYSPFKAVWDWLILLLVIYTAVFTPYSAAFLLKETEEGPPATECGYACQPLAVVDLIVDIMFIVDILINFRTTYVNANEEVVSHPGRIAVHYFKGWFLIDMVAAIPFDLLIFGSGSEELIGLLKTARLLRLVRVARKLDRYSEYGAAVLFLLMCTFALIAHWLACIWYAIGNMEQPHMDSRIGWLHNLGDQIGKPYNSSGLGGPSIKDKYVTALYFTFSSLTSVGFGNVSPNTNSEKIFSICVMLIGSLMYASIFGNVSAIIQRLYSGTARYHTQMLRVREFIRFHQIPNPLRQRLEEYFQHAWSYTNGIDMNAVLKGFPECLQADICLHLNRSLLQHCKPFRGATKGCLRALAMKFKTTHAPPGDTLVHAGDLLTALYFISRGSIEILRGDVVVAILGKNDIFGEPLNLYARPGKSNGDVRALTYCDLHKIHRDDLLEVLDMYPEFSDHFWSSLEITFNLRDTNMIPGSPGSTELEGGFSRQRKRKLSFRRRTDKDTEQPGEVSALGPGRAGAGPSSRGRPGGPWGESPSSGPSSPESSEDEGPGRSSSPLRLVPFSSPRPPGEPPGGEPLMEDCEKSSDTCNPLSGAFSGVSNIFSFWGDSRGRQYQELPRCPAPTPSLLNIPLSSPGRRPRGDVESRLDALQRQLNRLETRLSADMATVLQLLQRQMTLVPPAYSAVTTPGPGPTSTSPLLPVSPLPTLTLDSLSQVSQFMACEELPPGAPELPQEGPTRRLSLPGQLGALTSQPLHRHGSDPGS
T2 sequence (Q12809 whole entry): as above

Row | Structure (SMILES) | Inhibitory activity against hERG (conclusion) [1] | inhibition at 0.3 µM [1, 4] | inhibition at 0.3 µM [1, 5] | inhibition at 1 µM [1, 6] | inhibition at 1 µM [1, 4] | inhibition at 1 µM [1, 5] | inhibition at 3 µM [1, 6] | inhibition at 3 µM [1, 4] | inhibition at 3 µM [1, 5] | inhibition at 0.1 µM [2, 6] | inhibition at 0.1 µM [2, 4] | inhibition at 0.1 µM [2, 5] | inhibition at 0.3 µM [2, 6] | inhibition at 10 µM [2, 6] | inhibition at 10 µM [2, 4] | inhibition at 10 µM [2, 5] | inhibition at 30 µM [2, 6] | inhibition at 30 µM [2, 4] | inhibition at 30 µM [2, 5] | Effect on dyslipidemia (TCHO, TG, HDL-C and LDL-C) [3]
1 | O=C(Cc1ccc2ncccc2c1)N1CCC(n2c(=O)[nH]c3cccc(C(F)(F)F)c32)CC1 [GEN1-117, 1-(1-(2-(Quinolin-6-yl)acetyl)piperidin-4-yl)-7-(trifluoromethyl)-1H-benzo[d]imidazol-2(3H)-one] | no significant inhibitory activity against hERG | 4.17% | 4.06% | 7.99% | 13.4% | 10.7% | 11% | 13.3% | 12.2% | 3.84% | -0.21% | 1.81% | 3.95% | 12.8% | 19.3% | 16% | 12.8% | 19.3% | 16% | –
2 | O=C(Cc1ccc2ncccc2c1)N1CCC(n2c(=O)n(COP(=O)([O-])[O-])c3cccc(C(F)(F)F)c32)CC1.[Na+].[Na+] [GEN1-284 salt, (2-Oxo-3-(1-(2-(quinolin-6-yl)acetyl)piperidin-4-yl)-4-(trifluoromethyl)-2,3-dihydro-1H-benzo[d]imidazol-1-yl)methyl disodium phosphate] | no significant inhibitory activity against hERG | 2.25% | 6.24% | 2.88% | 0% | 1.44% | 0% | 2.66% | 1.33% | 2.22% | 8.28% | 5.25% | 10.2% | 9.28% | 3.41% | 6.34% | 19.1% | 8.86% | 13.9% | partially ameliorate dyslipidemia
